Measurements: article PMC5081312, “Antifouling phenyl ethers and other compounds from the invertebrates and their symbiotic fungi collected from the South China Sea” (AMB Express, 2016)
Like-named read-outs stand apart in the source and are kept apart here. Starred links: 1 amine or outer side, 2 acyl side, 3 side chain; linkers in the order of their positions; H or OH if unused. Non-standard residues stand in square brackets, D forms with d. Residues, ends and D or L forms follow the SMILES beside them. X1 = O=C(c1cc(O)ccc1N[*:1])[*:2]

Columns and labels:
[1] = test system: cyprids of barnacle B. amphitrite; assay: Anti-larval settlement bioassay (antifouling activity and larval toxicity); assay type: in vivo; conditions: for LC50/EC50 ratio (therapeutic ratio): B. amphitrite cyprids, ratio >15 considered non-toxic; for LC50 / EC50: cyprids of B. amphitrite, 48 h at 28 °C; for LC50: concentration where 50% of larvae were dead; for EC50: concentration where 50% of larvae were inhibited to settle vs negative control, read-out: EC50 (larval settlement inhibition); for inhibition of larval settlement in preliminary screening: B. amphitrite, at 25.0 μg ml^−1
Procedure: (§1) The newly released nauplii were screened with the aperture of 90 μm. The newly released nauplii were raised in filtered seawater (FSW) at 28 °C with mild aeration and fed with Chaetoceros gracilis Schutt at 1 × 10^6 cells ml^−1. The nauplius larvae transformed into cyprids (ready to attach and metamorphose) after 3.5 days. Newly transformed cyprids were kept in filtered seawater at 4 °C overnight before being used in the anti-larval settlement bioassay.
(§2) The antifouling activity was evaluated as larval settlement inhibition against the cyprids of barnacle B. amphitrite using 24-well polystyrene plates (Nunc, Naperville, CA, USA). Each compound was dissolved in a stock solution of DMSO with the concentration of 50 mg ml^−1, and then diluted 1000 times with FSW to 50 μg ml^−1. The compound was further transferred into FSW to make up the following test solution with the concentrations ranging from 25 to 0.50 μg ml^−1. One millilitre of the test solution and 16–20 larvae were allocated to each well of the 24-well plate. Each concentration had three replicate wells. The plates were cultivated in darkness for 48 h at 28 °C. The effects of the test compounds against the larvae settlement were determined by examining the plates under a dissecting microscope to check for (1) settled larvae (attached and metamorphosed), (2) swimming larvae, as well as (3) any possible toxic effects of the treatments (dead and paralyzed). The number of the settled larvae was expressed as a percentage of the total number of larvae per well. Each compound was tested by triplicate experiments using three different batches of larvae.
(§3) The EC50 and LC50 values of each compound were calculated according to the records of anti-larval settlement experiments. […] Then a concentration–response curve was plotted and a tread line was set up.

[2] = as above; assay type: in vivo; conditions: Balanus (Amphibalanus) amphitrite (barnacle cyprid larvae), in vivo, other: larvae immersed in test solution; cyprids of B. amphitrite, 48 h at 28 °C, concentration where 50% of larvae were dead
Procedure: as §1, §2, §3

## 1-Formyl-4-methyl-7-isopropylazulene [compound 17]
[1]
  LC50/EC50 ratio (therapeutic ratio): >16.1
  LC50: > 236 µM
  EC50: 14.7 µM

## CC(C)C(C)CCC(C)C1CCC(C2=CC(O)C3CC(O)CCC3(C)C2=O)C1(C)CCO (mixture of isomers) [compound 24, (24R)-and(24S)-3β,6α,11-Trihydroxy-methyl-9,11-seco-5α-cholest-7-en-9-one]
[1]
  LC50: > 112 µM
  EC50: > 55.8 µM

## CCCOc1cc(C)cc(Oc2cc(C)cc(O)c2)c1 [compound 7, 3-O-propyl-diorcinol]
[2]
  LC50 at 48 h: 112 µM
[1]; Amphibalanus amphitrite, 48 h
  EC50: < 10 µM
[1]
  LC50/EC50 ratio (therapeutic ratio): 11.4
  EC50: 9.82 µM

## CCCCCOc1cc(C)cc(Oc2cc(C)cc(O)c2)c1 [compound 8, 3-O-pentyl-diorcinol]
[2]
  LC50 at 48 h: > 167 µM
[1]; Amphibalanus amphitrite, 48 h
  EC50: 27.9 µM
[1]
  LC50/EC50 ratio (therapeutic ratio): >5.99

## CC(=O)Oc1cc(C)cc(Oc2cc(C)cc(O)c2)c1 [compound 9, 3-O-acetyl-diorcinol]
[2]
  LC50 at 48 h: 64.3 µM

## CC(=O)Oc1cc(C)cc(Oc2cc(C)cc(OC(C)=O)c2)c1 [compound 11, 3,3′-O-diacetyl-diorcinol]
[2]
  LC50 at 48 h: 49.4 µM

## CCCCCOc1cc(C)cc(Oc2cc(C)cc(OCCCCC)c2)c1 [compound 12, 3,3′-O-dipentyl-diorcinol]
[2]
  LC50 at 48 h: > 135 µM
[1]; Amphibalanus amphitrite, 48 h
  EC50: 12.2 µM
[1]
  LC50/EC50 ratio (therapeutic ratio): >11.1

## Cc1cc(C=O)c2c(C)ccc(C(C)C)cc1-2 [compound 16, 1-Formylguaiazulene]
[2]
  LC50 at 48 h: 221 µM
[1]; Amphibalanus amphitrite, 48 h
  EC50: 42 µM

## Cc1cc(C=O)c2c(C)cc3c(cc1-2)[C@@H](C)CO3 [compound 18, Ochracenoid A]
[2]
  LC50 at 48 h: 208 µM
[1]; Amphibalanus amphitrite, 48 h
  EC50: 83.3 µM

## CC1=CC(=O)c2c1cc(C(C)C)c(C=O)c2C [compound 19, 3,8-Dimethyl-5-isopropyl-6-formylindenone]
[1]
  LC50: > 219 µM
  EC50: > 110 µM

## CC1=CC(=O)c2c(C)cc(C(=O)C(C)C)cc21 [compound 20, Ochracenoid B]
[1]
  LC50: > 219 µM
  EC50: > 110 µM

## CC1=CC(=O)c2c(C)cc3oc(=O)c(C)c-3cc21 [compound 21, Ketolactone]
[2]
  LC50 at 48 h: > 208 µM
[1]; Amphibalanus amphitrite, 48 h
  EC50: > 104 µM

## CC(C)CCC(C)C1CCC(C2=CC(O)C3CC(O)CCC3(C)C2=O)C1(C)CCO (stereo not drawn) [compound 23, 3β,6α,11-Trihydroxy-24-nor-9,11-seco-5α-cholest-7-en-9-one]
[1]
  inhibition of larval settlement in preliminary screening: completely inhibited
  LC50: 59.5 µM
  EC50: 10.7 µM

## CC(C)C=CC(C)C1CCC(C2=CC(O)C3CC(O)CCC3(C)C2=O)C1(C)CCO (stereo not drawn) [compound 25, (22E)-3β,6α,11-Trihydroxy-24-nor-9,11-seco-5α-cholesta-7,22-dien-9-one]
[1]
  inhibition of larval settlement in preliminary screening: completely inhibited
  LC50: 59.8 µM
  EC50: 29.9 µM

## CC(C)CCCC(C)C1CCC(C2=CC(O)C3CC(O)CCC3(C)C2=O)C1(C)CCO (stereo not drawn) [compound 26, 3β,6α,11-Trihydroxy-9,11-seco-5α-cholest-7-en-9-one]
[1]
  inhibition of larval settlement in preliminary screening: completely inhibited
  LC50: 57.6 µM
  EC50: 28.6 µM

## C=C(CCC(C)C1CCC(C2=CC(O)C3CC(O)CCC3(C)C2=O)C1(C)CCO)C(C)C (stereo not drawn) [compound 27, 3β,6α,11-Trihydroxy-9,11-seco-5α-cholesta-7,24(28)-dien-9-one]
[1]
  LC50: > 56.1 µM
  EC50: > 56.1 µM

## CC(C)C(C)C=CC(C)C1CCC(C2=CC(O)C3CC(O)CCC3(C)C2=O)C1(C)CCO [compound 28, (22E,24R)-3β,6α,11-trihydroxy-24-Methyl-9,11-seco-5α-cholesta-7,22-dien-9-one]
[1]
  LC50/EC50 ratio (therapeutic ratio): >1.25
  LC50: > 56.1 µM
  EC50: 44.8 µM

## CC(C)CC=CC(C)C1CCC(C2=CC(O)C3CC(O)CCC3(C)C2=O)C1(C)CCO (stereo not drawn) [compound 29, (22E)-3β,6α,11-Trihydroxy-9,11-seco-5α-cholesta-7,22-dien-9-one]
[1]
  LC50: 57.9 µM
  EC50: 14.7 µM

## CC(=O)OCCC1(C)C(C2=CC(OC(C)=O)C3CC(O)CCC3(C)C2=O)CCC1C(C)C=CCC(C)C (stereo not drawn) [compound 30, (22E)-6,11-Diacetoxy-3-hydroxy-9,11-seco-5α-cholesta-7,22-dien-9-one]
[1]
  LC50/EC50 ratio (therapeutic ratio): 16.1
  LC50: 96.8 µM
  EC50: 6.01 µM

## CC(=O)OCCC1(C)C(C2=CC(OC(C)=O)C3CC(OC(C)=O)CCC3(C)C2=O)CCC1C(C)C=CCC(C)C (stereo not drawn) [compound 31, (22E)-3,6,11-Triacetoxy-9,11-seco-5α-cholesta-7,22-dien-9-one]
[1]
  LC50/EC50 ratio (therapeutic ratio): 8.00
  LC50: 96.8 µM
  EC50: 12.1 µM

## C[C@]12CCC[C@H](O1)c1c(cc3c(c1O)C(=O)c1c(O)cc(O)cc1C3=O)O2 [compound 32, Averufin]
[1]
  LC50/EC50 ratio (therapeutic ratio): >14.7
  LC50: > 136 µM
  EC50: 9.27 µM

## COc1cc(O)cc2c1C(=O)c1c(cc3c(c1O)[C@H]1O[C@](C)(CC[C@@H]1O)O3)C2=O [compound 33, 8-O-methylnidurufin]
[1]
  LC50/EC50 ratio (therapeutic ratio): >8.75
  LC50: > 126 µM
  EC50: 14.4 µM

## C[C@]12CC[C@H](O)[C@H](O1)c1c(cc3c(c1O)C(=O)c1c(O)cc(O)cc1C3=O)O2 [compound 34, Nidurufin]
[1]
  LC50: > 130 µM
  EC50: > 65.1 µM

## COc1cc(O)cc2c1C(=O)c1c(O)cc(CO)cc1C2=O [compound 35, Questinol]
[1]
  LC50: > 167 µM
  EC50: > 83.3 µM

## COc1cc(O)cc2c1C(=O)c1c(O)cc(CO)c(O)c1C2=O [compound 36, ω-Hydroxyrubrocristin]
[1]
  LC50: > 158 µM
  EC50: > 79.1 µM

## COc1cc(O)c(-c2c3c(c(O)c4c(OC)cc(O)cc24)C(=O)C=C(C)C3=O)c2cc3c(c(O)c12)C(=O)C[C@@](C)(O)C3 [compound 37, Asperinine A]
[1]
  LC50/EC50 ratio (therapeutic ratio): >2.88
  LC50: > 87.7 µM
  EC50: 30.5 µM

## COc1cc(O)c(-c2c3c(c(O)c4c(OC)cc(O)cc24)C(=O)C=C(C)C3=O)c2cc3c(c(O)c12)C(=O)C[C@@](C)(O)C3 [compound 38, Asperinine B]
[1]
  LC50/EC50 ratio (therapeutic ratio): >2.22
  LC50: > 87.7 µM
  EC50: 39.5 µM

## CC[C@H](O)c1cc(O)c2c(c1)C(=O)c1cc(O)cc(O)c1C2=O [compound 39, Rhodoptilometrin]
[1]
  LC50/EC50 ratio (therapeutic ratio): 13.4
  LC50: 159 µM
  EC50: 11.9 µM

## C=CC(C)(C)c1[nH]c2ccc(CC=C(C)C)cc2c1C=C1NC(=O)C2(C=C3c4cc(O)cc(OC)c4C(=O)c4c(O)cc(C)c(c43)O2)NC1=O (stereo not drawn) [compound 41, 7-O-methylvariecolortide A]
[1]
  LC50: > 74.5 µM
  EC50: > 74.5 µM

## C=CC(C)(C)c1[nH]c2ccccc2c1/C=C1\NC(=O)C2(C=C3c4cc(O)cc(O)c4C(=O)c4c(O)cc(C)c(c43)O2)NC1=O (stereo not drawn) [compound 42, Variecolortide B]
[1]
  LC50: > 84.9 µM
  EC50: > 84.9 µM

## COc1cc(O)cc(C)c1C(=O)O[C@@H]1[C@H](O)[C@@H](CO)O[C@H]1n1ccc(=O)[nH]c1=O [compound 48, Kipukasin H]
[1]
  LC50: > 123 µM
  EC50: > 61.3 µM

## COc1cc(C)c(C(=O)O[C@@H]2[C@H](O)[C@@H](CO)O[C@H]2n2ccc(=O)[nH]c2=O)c(OC)c1 [compound 49, Kipukasin E]
[1]
  LC50: > 59.2 µM
  EC50: > 59.2 µM

## COc1cc(C)c(C(=O)O[C@H]2[C@@H](O)[C@H](n3ccc(=O)[nH]c3=O)O[C@@H]2CO)c(OC)c1 [compound 50, Kipukasin D]
[1]
  LC50: > 59.2 µM
  EC50: > 59.2 µM

## COc1cc(C)c(C(=O)O[C@@H]2[C@H](OC(C)=O)[C@@H](COC(C)=O)O[C@H]2n2ccc(=O)[nH]c2=O)c(OC)c1 [compound 51, Diacetylkipukasin E]
[1]
  LC50/EC50 ratio (therapeutic ratio): >2.22
  LC50: > 98.8 µM
  EC50: 44.5 µM

## COc1cc(C)c(C(=O)O[C@H]2[C@@H](OC(C)=O)[C@H](n3ccc(=O)[nH]c3=O)O[C@@H]2COC(C)=O)c(OC)c1 [compound 52, Diacetylkipukasin D]
[1]
  LC50: > 98.8 µM
  EC50: > 49.4 µM

## COC(=O)c1ccccc1NC(=O)[C@H](CC[S+](C)[O-])NC(=O)c1cnc2c(n1)c(=O)n(C)c(=O)n2C (stereo partly drawn) [compound 53, Penilumamide]
[1]
  LC50: > 96.9 µM
  EC50: > 96.9 µM

## C[C@H](NC(=O)c1cnc2c(n1)c(=O)n(C)c(=O)n2C)C(=O)Nc1ccccc1C(N)=O [compound 54, Penilumamide D]
[1]
  LC50: > 58.8 µM
  EC50: > 58.8 µM

## C[C@@H]1NC(=O)[C@H](Cc2ccc(O)cc2)NC(=O)c2cc(O)ccc2NC(=O)[C@@H]2CCCN2C(=O)[C@H](C)NC1=O [compound 55, Asperpeptide A] (cyclo(AAP[X1]Y))
[1]
  LC50: > 46.6 µM
  EC50: > 46.6 µM

## Variecolortide C [compound 40]
[1]
  LC50: > 82.9 µM
  EC50: > 82.9 µM
